Measured values: article PMC9658586, “1,4-Naphthoquinone Motif in the Synthesis of New Thiopyrano[2,3-d]thiazoles as Potential Biologically Active Compounds” (Molecules, 2022)
Read-outs that look alike come from different tables or passages of the source.

What was measured:
[1] = tested on: Human leukemia monocytic THP-1 cells; assay: MTT cell viability assay, THP-1; assay type: cell-based; settings: 72 h
Procedure: (§1) The MTT cell viability assay was performed 72 h after cells treatment with various concentrations of studied compounds and doxorubicin, a reference drug. […] It is known that ABCB1 (P-glycoprotein), MRP1/ABCC1 (multidrug resistance protein 1), and BCRP/BCG2 (breast cancer resistance protein) have been reported to be key players in resistance to chemotherapy. […] The p53 has diverse mutations in almost all human tumors, stimulating their hyper-proliferation, invasion/metastasis, and thus, influencing the potency of various chemotherapeutics (i.e., platins and anti-metabolites).
(§2) Human colon carcinoma HCT116 cells, human breast adenocarcinoma cells of MCF-7 line, human T-leukemia Jurkat cells, human chronic myelogenous leukemia K562 cells, and human keratinocytes of HaCaT line were from the Cell Collection of R.E. Kavetsky Institute of Experimental Pathology, Oncology and Radiobiology (Kyiv, Ukraine). […]
(§3) MTT assay was used to examine the viability of tumor and pseudo-normal cells after their treatment with studied thiopyrano[2,3-d]thiazole derivatives and doxorubicin (Actavis S.R.L., Bucharest, Romania). […] An absorbance Reader BioTek ELx800 (BioTek Instruments, Inc., Winooski, VT, USA) was used to measure the reaction product.

[2] = tested on: human chronic myelogenous leukemia K562 cells; assay: MTT cell viability assay, K562; assay type: cell-based; settings: Homo sapiens, K562, 72 h
Procedure: as §1
(§4) Human colon carcinoma HCT116 cells, human breast adenocarcinoma cells of MCF-7 line, human T-leukemia Jurkat cells, human chronic myelogenous leukemia K562 cells, and human keratinocytes of HaCaT line were from the Cell Collection of R.E. Kavetsky Institute of Experimental Pathology, Oncology and Radiobiology (Kyiv, Ukraine). Murine macrophages of J774.2 line were a generous gift from Professor Sir John Vane (William Harvey Research Institute, London, UK) via Professor Janusz Marcinkiewicz (Jagiellonian University Medical College, Krakow, Poland). Human colon carcinoma HCT116 p53-/- cells with knockdown of P53 gene, as well as human epidermoid cervix carcinoma KB3-1 cells and its ABCB1-overexpressing subline KBC-1, were kindly provided by Professor W. Berger (Institute of Cancer Research, Medical University of Vienna, Austria). […] Human leukemia monocytic THP-1 cells were kindly provided by Professor M. Herrmann (Department of Internal Medicine, Institute for Clinical Immunology and Rheumatology, University of Erlangen-Nuremberg, Germany). Cells were cultured in DMEM or RPMI-1640 medium supplemented with 10% fetal bovine serum (all were purchased from Biowest, Nuaille, France) at 37 °C in a humidified atmosphere containing 5% CO2.
(§5) MTT assay was used to examine the viability of tumor and pseudo-normal cells after their treatment with studied thiopyrano[2,3-d]thiazole derivatives and doxorubicin (Actavis S.R.L., Bucharest, Romania). Cells were seeded in 96-well plates at a density of 3–5 × 103. After 24 h, cells were treated with compound […], 1,4-NQ (0.1–100 µM), and doxorubicin (0.1–100 µM). After incubation for 72 h, MTT reagent (Sigma-Aldrich, St. Louis, MO, USA) was added to each well, according to the Sigma-Aldrich protocol. An absorbance Reader BioTek ELx800 (BioTek Instruments, Inc., Winooski, VT, USA) was used to measure the reaction product.

[3] = tested on: human breast adenocarcinoma cells of MCF-7 line; assay: MTT cell viability assay, MCF-7; assay type: cell-based; settings: Homo sapiens, MCF7, 72 h
Procedure: as §1, §4, §5

[4] = tested on: human keratinocytes of HaCaT line; assay: MTT cell viability assay, HaCaT; assay type: cell-based; settings: 72 h, pseudo-normal cells
Procedure: as §1
as §4, with “Cells were cultured in DMEM or RPMI-1640 medium supplemented with 10% fetal bovine serum (all were purchased from Biowest, Nuaille, France) at 37 °C in a humidified atmosphere containing 5% CO2.” left out
as §3

KB3-1 cells = assay: Fluorescence microscopy of cells, Hoechst-33342 staining; assay type: cell-based, human; settings: 1 µM, 24 h
Procedure: One can also see giant KB3-1 cells with abnormal nuclei and looser chromatin (Figure 7B). The mitotic catastrophe may occur during or after aberrant mitosis. Mitotic catastrophe has been reported as a special example of apoptosis affecting mitochondrial membrane permeabilization and caspase activation. […] Thus, compound 3.6 induced pro-apoptotic cytomorphological changes in treated KB3-1 cells.
The KB3-1 cells were seeded in 24-well plates at 5 × 10^5/mL and then treated for an additional 24 h with compound […] (1 μM) and doxorubicin (1 μM). Cells were stained with 0.2–0.5 µg/mL of Hoechst-33342 and incubated for 20–30 min before the cell examination. A Zeiss fluorescent microscope (Carl Zeiss, Jena, Germany), AxioImager A1 camera (at 400× magnification), and AxioVision image analysis software Release 4.6.3.0 for Carl Zeis microscopy (Imaging Associates Ltd., Cork, Ireland, UK) were used for cells examination. All microphotographs were additionally analyzed using ImagePro7 software (Media Cybernetics, Rockville, MD, USA).

[5] = tested on: KBC-1 (ABCB1-overexpressing subline of KB3-1); assay: MTT cell viability assay, KBC-1; assay type: cell-based; settings: Homo sapiens, 72 h
Procedure: as §1
as §4, with “Cells were cultured in DMEM or RPMI-1640 medium supplemented with 10% fetal bovine serum (all were purchased from Biowest, Nuaille, France) at 37 °C in a humidified atmosphere containing 5% CO2.” left out
as §3

Jurkat cells = assay: DNA laddering (DNA extraction and gel electrophoresis); assay type: cell-based, human
Procedure: DNA extraction and gel electrophoresis were performed as described by Herrmann and others. Jurkat cells were collected by centrifugation; lysed in a lysis buffer (1% NP-40 in 20 mM EDTA, 50 mM Tris-HCl, pH 7.5; 10 µL per 10 6 cells, minimum 50 µL). After centrifugation for 5 min at 1600× g, the supernatant was collected and the extraction was repeated with the same amount of lysis buffer. Supernatants were brought to 1% SDS and treated for 2 h with RNase A (final concentration 5 µg/mL) at 56 °C. Then, proteinase K was added (final concentration 2.5, µg/mL) and incubated for 2 h at 37 °C. After adding 1/2 volume of 10 M ammonium acetate, the DNA was precipitated with 2.5 vol. Ethanol, dissolved in gel loading buffer, and separated by electrophoresis in 1% agarose gels containing Ethidium bromide (at 70 V).

[6] = tested on: human T-leukemia Jurkat cells; assay: MTT cell viability assay, Jurkat; assay type: cell-based; settings: 72 h
Procedure: as §1, §2, §3

[7] = tested on: isolated normal human peripheral blood lymphocytes; assay: MTT cell viability assay, isolated lymphocytes; assay type: cell-based; settings: MTT, 72 h, normal human peripheral blood lymphocytes, read-out: IC50, Isolated lymphocytes
Procedure: We continued the cytotoxicity study of synthesized derivatives 3.1–3.6 toward tumor and pseudo-normal cells in vitro. The MTT cell viability assay was performed 72 h after cells treatment with various concentrations of studied compounds and doxorubicin, a reference drug. […] The THP-1 cells, monocytes isolated from peripheral blood from an acute monocytic leukemia patient, were also sensitive to the 3.6 treatment. […] The 3.6 inhibited the viability of epidermoid carcinoma (KB3-1 and its ABCB1-overexpressing subline KBC-1) and colon carcinoma (HCT116wt and its p53 knockdown subline HCT116 p53-/-) cells. It is known that ABCB1 (P-glycoprotein), MRP1/ABCC1 (multidrug resistance protein 1), and BCRP/BCG2 (breast cancer resistance protein) have been reported to be key players in resistance to chemotherapy. […] Thus, the p53 status of colon carcinoma cells influenced the anti-tumor effects of the studied 3,5,10,11-tetrahydro-2H-benzo[6,7]thiochromeno[2,3-d][1, 3]thiazole-2,5,10-trione. The p53 has diverse mutations in almost all human tumors, stimulating their hyper-proliferation, invasion/metastasis, and thus, influencing the potency of various chemotherapeutics (i.e., platins and anti-metabolites). […] Based on our findings, one can assume a p53-dependent mode of action for 3.6 toward colon cancer cells.
as §5
The study protocol with human lymphocytes isolated from healthy adult peripheral blood was approved by BioEthics Committee of the Institute of Cell Biology of National Academy of Sciences of Ukraine (protocol No 2 from 27 January 2019), and with written consent of donor.

Structure (SMILES) | IC50 [1] [µM] | IC50 [2] [µM] | IC50 [3] [µM] | IC50 ([4]; Homo sapiens, HaCaT) [nM] | cytomorphological alterations (KB3-1 cells) | IC50 [5] [µM] | DNA laddering (Jurkat cells; 1 µM) | DNA laddering (Jurkat cells; 2.5 µM and 5 µM) | DNA laddering (Jurkat cells; 10 µM and 25 µM) | IC50 [6] [nM] | IC50 ([7]; Lymphocyte) [nM] | IC50 ([4]; listed as Dox) [nM] | DNA laddering (Jurkat cells; 0.5 µM) | IC50 ([7]; Homo sapiens, Lymphocyte) [nM] | IC50 ([7]; listed as Dox) [nM]
O=C1C2=C(C(=O)c3ccccc31)C(CCc1ccccc1)c1sc(=O)[nH]c1S2 (stereo not shown) [Compound 3.6, 11-Phenethyl-3,11-dihydro-2H-benzo[6,7]thiochromeno[2,3-d]thiazole-2,5,10-trione] | 7.94 | 25.7 | 8.94 | > 100000 | shrunk, with condensed chromatin and membrane blabbing | 12.8 | slight laddering of DNA | necrotic degradation of DNA | extreme DNA fragmentation | 760 | 58700 | – | – | – | –
COc1cccc2c1C(=O)c1c(O)c3c(c(O)c1C2=O)C[C@@](O)(C(=O)CO)C[C@@H]3O[C@H]1C[C@H](N)[C@H](O)[C@H](C)O1 [Doxorubicin, doxorubicin, reference compound] | 14 | 0.62 | 0.63 | 800 to 1000 | chromatin condensation and membrane blabbing | 1.97 | – | – | – | 670 | – | 800 | more necrotic changes in treated Jurkat cells than apoptotic ones | 800 to 1000 | 1000
